The test in a line: Binding affinity for delta opioid receptor was determined using radioligand [3H]DPDPE in Guinea pig brain membranes.

SMILES strings stand for the structures.

Broadly, the Ki is the equilibrium dissociation constant of an inhibitor or competing ligand from its target. A lower Ki goes with a stronger hold on the target.

With `CCCCC(=N)NCc1ccc2[nH]c3c(c2c1)C[C@@]1(O)C2Cc4ccc(O)c5c4[C@@]1(CCN2CC1CC1)C3O5` (stereo partly drawn) [22-cyclopropylmethyl-7-(1-iminopentylaminomethyl)-(2S)-14-oxa-11,22-diazaheptacyclo[13.9.1.01,13.02,21.04,12.05,10.019,25]pentacosa-4(12),5(10),6,8,15,17,19(25)-heptaene-2,16-diol], the Ki is 5.5 nM.

(Values after BindingDB's records for doi:10.1021/jm00053a025 (University of Minnesota, 1993).)
